Reference: patent US20170231929A1, “METHOD FOR ENHANCING IMMUNE CELL FUNCTION AND METHOD FOR ASSESSING IMMUNE CELL MULTIFUNCTIONALITY” (NATIONAL UNIVERSITY CORPORATION OKAYAMA UNIVERSITY, priority 2014, published 2017)
“And” between values parts separate entries of the source, which are not always exact repeats. Equal entries are not always repeated. “Also recorded” adds a separate entry of the source.

Tested on: CD8^+T cells
Assay: Multifunctionality of CD8^+T cells of healthy subjects after metformin treatment of PBMC (flow cytometer)
Type: cell-based, human
Description: 1. Peripheral blood was obtained from a test subject, and PBMC was separated by a density-gradient centrifugation using a lymphocyte-separating reagent Ficoll-Paque® (GE Healthcare). 3 mL of Ficoll-Paque® was dispensed in a 15-mL tube. 8 mL of the peripheral blood was gently placed on the reagent. At this time, care should be taken not to mix Ficoll-Paque® with the peripheral blood. Centrifugation was performed at 400 g for 30 minutes, thereby separating PBMC. 2. The separated PBMC was preserved in a −150° C. freezer or liquid nitrogen using Bambang Car cell preservation liquid by adjusting the cell number to 2.0×10^6 cell/tube. 3. In the test, the thawed PBMC was cultured for 1 to 10 hours in the presence or absence of […]. The culture was performed using a 24-well plate, and the cell number was adjusted to about 5.0×10^5 cell/well. 4. The cells were collected after 1 to 10 hours, washed with medium, and cultured in the presence of a cell activation reagent (potent nanomolar activator of protein kinase C (PMA, 50 ng/mL), ionomycin (1 μM)) for 6 hours, thereby non-specifically stimulating T cells. At this time, BD Gorgi Stop™ was added to keep the produced cytokines inside the cells. 5. The cells were isolated and washed twice with a cell-staining buffer. First, staining of CD8, PD-1, Tim-3, which are molecules expressed on the T cell surface, was performed. In the staining, a staining buffer was added in an amount of 50 μL per sample. The culture was performed at 4° C. for 30 minutes. 6. The cells were collected and washed twice with a cell-staining buffer. 500 μL of BD Cytofix/Cytoperm was added and cultured at 4° C. for 30 minutes. 7. The cells were collected and washed twice with BD Perm/Wash™. Staining of cytokines IL-2, TNFα, and IFNγ was performed. In the staining, BD Perm/Wash™ was added in an amount of 50 μL per sample. The culture was performed at 4° C. for 30 minutes. 8. The cells were collected and washed twice with BD Perm/Wash™, and 200 μL of BD Perm/Wash™ was added. 9. Analysis was performed using a FACSCanto™ II flow cytometer (Becton, Dickinson and Company).
Among the PBMC treated with PMA/ionomycin in the method shown in (2) above, first, a gate was applied to CD8^+T cells using a FACSCanto™ II flow cytometer (Becton, Dickinson and Company), and then […] were removed by FSC-A and FSC-H. Using parameters FSC-A and SSC-A, a gate was applied to a lymphocyte group, thereby analyzing expression of PD-1 and Tim-3. Further, intracellular cytokines IFNγ, TNFα, and IL-2 were stained, and multifunctionality of CD8^+T cells contained in the PBMC was analyzed (FIG. 1).
PBMC obtained from healthy subjects (N=10) was cultured for an hour in the presence or absence of metformin by the method shown in (2). After metformin was removed, the PBMC was subjected to stimulating culture with PMA/ionomycin for 6 hours by the method shown in (3). Among the resulting PBMC, CD8^+T cells capable of simultaneously producing three kinds of cytokines, i.e., IFNγ, TNFα, and IL-2, were detected. The CD8^+T cells untreated with metformin were determined to be 0.11%, and the CD8^+T cells treated with metformin were determined to be 0.09% (FIG. 2). Accordingly, it was judged that multifunctionality of CD8^+T cells was not increased by a metformin treatment in healthy subjects.
In the PBMC of healthy subjects treated as above, the ratios of CD8^+T cells producing three kinds of cytokines (IFNγ/TNFα/IL-2), CD8^+T cells producing two kinds of cytokines (IFNγ/TNFα or IFNγ/IL-2), and CD8^+T cells producing one kind of cytokine (IFNγ) to the entire CD8^+T cells were calculated and shown in Table 1. The calculation results were compared between the metformin-untreated group (control) and the metformin-treated group (metformin).

[1] = PD-1+, Tim-3+, Healthy Subjects, subjects/total
[2] = PD-1+, Tim-3−, Healthy Subjects, subjects/total
[3] = PD-1−, Tim-3+, Healthy Subjects, subjects/total
[4] = PD-1−, Tim-3−, Healthy Subjects, subjects/total
[5] = Total CD8T, Healthy Subjects, subjects/total
[6] = healthy subjects, PBMC cultured an hour with metformin, then PMA/ionomycin 6 hours, each table row = one subject
[7] = healthy subjects, each table row = one subject
[8] = total CD8^+T cells, healthy subjects

CN(C)C(=N)N=C(N)N [metformin]
Decrease, IFNγ 1-cytokine-producing cell [1]: 4/10
Decrease, IFNγ/IL-2 2-cytokine-producing cell [1]: 4/10
Decrease, IFNγ/TNFα 2-cytokine-producing cell [1]: 6/10
Decrease, IFNγ/TNFα/IL2 3-cytokine-producing cell [1]: 1/10
Increase, IFNγ 1-cytokine-producing cell [1]: 6/10
Increase, IFNγ/IL-2 2-cytokine-producing cell [1]: 2/10
Increase, IFNγ/TNFα 2-cytokine-producing cell [1]: 3/10
Increase, IFNγ/TNFα/IL2 3-cytokine-producing cell [1]: 3/10 and 5/10
No Change, IFNγ 1-cytokine-producing cell [1]: 0/10
No Change, IFNγ/IL-2 2-cytokine-producing cell [1]: 4/10
No Change, IFNγ/TNFα 2-cytokine-producing cell [1]: 1/10
No Change, IFNγ/TNFα/IL2 3-cytokine-producing cell [1]: 4/10
Decrease, IFNγ 1-cytokine-producing cell [2]: 5/10
Decrease, IFNγ/IL-2 2-cytokine-producing cell [2]: 6/10
Decrease, IFNγ/TNFα 2-cytokine-producing cell [2]: 4/10
Decrease, IFNγ/TNFα/IL2 3-cytokine-producing cell [2]: 5/10
Increase, IFNγ 1-cytokine-producing cell [2]: 2/10
Increase, IFNγ/IL-2 2-cytokine-producing cell [2]: 3/10
Increase, IFNγ/TNFα 2-cytokine-producing cell [2]: 3/10
Increase, IFNγ/TNFα/IL2 3-cytokine-producing cell [2]: 3/10
No Change, IFNγ 1-cytokine-producing cell [2]: 3/10
No Change, IFNγ/IL-2 2-cytokine-producing cell [2]: 1/10
No Change, IFNγ/TNFα 2-cytokine-producing cell [2]: 3/10
No Change, IFNγ/TNFα/IL2 3-cytokine-producing cell [2]: 2/10
Decrease, IFNγ 1-cytokine-producing cell [3]: 6/10
Decrease, IFNγ/IL-2 2-cytokine-producing cell [3]: 4/10
Decrease, IFNγ/TNFα 2-cytokine-producing cell [3]: 5/10
Decrease, IFNγ/TNFα/IL2 3-cytokine-producing cell [3]: 3/10
Increase, IFNγ 1-cytokine-producing cell [3]: 2/10
Increase, IFNγ/IL-2 2-cytokine-producing cell [3]: 1/10
Increase, IFNγ/TNFα 2-cytokine-producing cell [3]: 3/10
Increase, IFNγ/TNFα/IL2 3-cytokine-producing cell [3]: 1/10
No Change, IFNγ 1-cytokine-producing cell [3]: 2/10
No Change, IFNγ/IL-2 2-cytokine-producing cell [3]: 5/10
No Change, IFNγ/TNFα 2-cytokine-producing cell [3]: 2/10
No Change, IFNγ/TNFα/IL2 3-cytokine-producing cell [3]: 6/10
Decrease, IFNγ 1-cytokine-producing cell [4]: 4/10
Decrease, IFNγ/IL-2 2-cytokine-producing cell [4]: 5/10
Decrease, IFNγ/TNFα 2-cytokine-producing cell [4]: 4/10
Decrease, IFNγ/TNFα/IL2 3-cytokine-producing cell [4]: 7/10
Increase, IFNγ 1-cytokine-producing cell [4]: 2/10
Increase, IFNγ/IL-2 2-cytokine-producing cell [4]: 4/10
Increase, IFNγ/TNFα 2-cytokine-producing cell [4]: 4/10
Increase, IFNγ/TNFα/IL2 3-cytokine-producing cell [4]: 2/10
No Change, IFNγ 1-cytokine-producing cell [4]: 4/10
No Change, IFNγ/IL-2 2-cytokine-producing cell [4]: 1/10
No Change, IFNγ/TNFα 2-cytokine-producing cell [4]: 2/10
No Change, IFNγ/TNFα/IL2 3-cytokine-producing cell [4]: 1/10
Increase + No Change, IFNγ/TNFα/IL2, share of subjects (Total CD8T, Healthy Subjects): 30%
Decrease, IFNγ 1-cytokine-producing cell [5]: 2/10
Decrease, IFNγ/IL-2 2-cytokine-producing cell [5]: 6/10
Decrease, IFNγ/TNFα 2-cytokine-producing cell [5]: 5/10
Decrease, IFNγ/TNFα/IL2 3-cytokine-producing cell [5]: 7/10
Increase + No Change, IFNγ/TNFα/IL2 [5]: 3/10
Increase, IFNγ 1-cytokine-producing cell [5]: 4/10
Increase, IFNγ/IL-2 2-cytokine-producing cell [5]: 3/10
Increase, IFNγ/TNFα 2-cytokine-producing cell [5]: 3/10
Increase, IFNγ/TNFα/IL2 3-cytokine-producing cell [5]: 0/10
No Change, IFNγ 1-cytokine-producing cell [5]: 4/10
No Change, IFNγ/IL-2 2-cytokine-producing cell [5]: 1/10
No Change, IFNγ/TNFα 2-cytokine-producing cell [5]: 2/10
No Change, IFNγ/TNFα/IL2 3-cytokine-producing cell [5]: 3/10
CD8^+T cells capable of simultaneously producing IFNγ, TNFα and IL-2, treated with metformin (healthy subjects, FIG. 2, untreated with metformin 0.11%): 0.09%
ratio of CD8^+T cells producing one kind of cytokine (IFNγ) to the entire CD8^+T cells, metformin [6]: 13.18% and 16.70% and 8.18% and 11.64% and 4.62% and 1.68% and 6.23% and 0.95% and 1.87% and 12.00%
ratio of CD8^+T cells producing two kinds of cytokines (IFNγ/IL-2) to the entire CD8^+T cells, metformin [6]: 0.47% and 0.48% and 0.71% and 0.28% and 0.15% and 0.03% and 0.21% and 0.05% and 0.14% and 0.24%
ratio of CD8^+T cells producing two kinds of cytokines (IFNγ/TNFα) to the entire CD8^+T cells, metformin [6]: 31.38% and 3.54% and 32.26% and 11.52% and 16.84% and 1.50% and 11.17% and 0.12% and 1.08% and 3.98%
change of IFNγ producing CD8^+T cell ratio by metformin treatment vs control [7]: → (other cases with no significant differences); also recorded: ↑ (a 10% or more increase by a metformin treatment); also recorded: ↓ (a 10% or more decrease by a metformin treatment)
change of IFNγ/IL-2 producing CD8^+T cell ratio by metformin treatment vs control [7]: ↓ (a 10% or more decrease by a metformin treatment); also recorded: ↑ (a 10% or more increase by a metformin treatment); also recorded: → (other cases with no significant differences)
change of IFNγ/TNFα producing CD8^+T cell ratio by metformin treatment vs control [7]: ↓ (a 10% or more decrease by a metformin treatment); also recorded: ↑ (a 10% or more increase by a metformin treatment); also recorded: → (other cases with no significant differences)
multifunctionality of CD8^+T cells by a metformin treatment (healthy subjects, judgement from FIG. 2): not increased
decrease in multifunctionality (three kinds of cytokines), share of subjects [8]: 70%
increase in multifunctionality (three kinds of cytokines), share of subjects [8]: 0%
